Calls of active or inactive are those of the source.
What was measured:
SGC-7901 [1] = experiment: Induction of morphological changes in human SGC-7901 cells assessed as appearance of bright and shrunken nucleus at 0 to 30 nmol/L incubated for 48 hrs by DAPI staining based analysis; format: functional, cell-based; conditions: dose 0-30 nmol/L
MGC-803 [2] = experiment: Antiproliferative activity against human MGC-803 cells assessed as inhibition of cell growth at 10 to 30 nM by MTT assay; format: functional, cell-based; conditions: dose 10-30 nM, time 0-60 hrs, TDE = time-dependent effect
MGC-803 [3] = experiment: Induction of cell cycle arrest in human MGC-803 cells assessed as reduction in CDC2 phosphorylation at Thr161 residue at 0 to 24 nmol/L incubated for 48 hrs by Western blot analysis; format: functional, cell-based; conditions: dose 0-24 nmol/L
MGC-803 [4] = experiment: Induction of morphological changes in human MGC-803 cells assessed as appearance of oblate and bright cells at 0 to 24 nmol/L incubated for 48 hrs by bright field microscopic analysis; format: functional, cell-based; conditions: dose 0-24 nmol/L
HCT-116 = experiment: cells; conditions: Homo sapiens, HCT-116, 48 h
Description: Antiproliferative activity against human HCT-116 cells assessed as inhibition of cell growth incubated for 48 hrs by MTT assay

MGC-803 [5] = experiment: Induction of apoptosis in human MGC-803 cells assessed as increase in cleaved caspase-3 level at 0 to 24 nmol/L incubated for 48 hrs by Western blot analysis; format: functional, cell-based; conditions: dose 0-24 nmol/L
MGC-803 [6] = experiment: Induction of cell cycle arrest in human MGC-803 cells assessed as reduction in cyclin B1 protein expression incubated for 48 hrs by Western blot analysis; format: functional, cell-based; conditions: dose 0-24 nmol/L
Tubulin = experiment: Inhibition of tubulin polymerization (unknown origin) assessed as reduction in fluorescence intensity measured every 60 secs for 1 hr by microplate reader analysis; format: protein-complex assay, Homo sapiens
[7] = molecular target: T1, Lysine-specific histone demethylase 1A (Homo sapiens, UniProt O60341); experiment: Inhibition of LSD1 in human SGC-7901 cells assessed as increase in H3K9me1/2 expression level at 0 to 30 nmol/L incubated for 48 hrs by Western blot analysis; format: cell-based; conditions: dose 0-30 nmol/L
SGC-7901 [8] = experiment: Induction of apoptosis in human SGC-7901 cells assessed as downregulation of Bcl-2 protein expression incubated for 48 hrs by Western blot analysis; format: functional, cell-based; conditions: dose 0-30 nmol/L
MGC-803 [9] = experiment: Induction of apoptosis in human MGC-803 cells assessed as total apoptotic cells at 24 nmol/L incubated for 48 hrs by Annexin-FITC/PI staining based flow cytometry analysis (reference value: 10.9%); format: functional
SGC-7901 [10] = experiment: Induction of apoptosis in human SGC-7901 cells assessed as increase in total apoptotic cells incubated for 48 hrs by Annexin-FITC/PI staining based flow cytometry analysis; format: functional, cell-based; conditions: dose 0-30 nmol/L
SGC-7901 [11] = experiment: Induction of apoptosis in human SGC-7901 cells assessed as activation of caspase-3 at 0 to 30 nmol/L incubated for 48 hrs by Western blot analysis; format: functional, cell-based; conditions: dose 0-30 nmol/L
PC-3 = experiment: Antiproliferative activity against human PC-3 cells assessed as inhibition of cell growth incubated for 48 hrs by MTT assay; format: functional, cell-based; conditions: PC-3, 48 h
[12] = molecular target: T1, Lysine-specific histone demethylase 1A; experiment: Inhibition of LSD1 in human SGC-7901 cells assessed as increase in H3K4me2 expression level at 0 to 30 nmol/L incubated for 48 hrs by Western blot analysis; format: cell-based; conditions: dose 0-30 nmol/L
Tubulin (Homo sapiens) = Tubulin (Homo sapiens) (UniProt P68371+Q9H4B7+P0DPH7+P68366+Q13509+Q71U36+P04350+Q3ZCM7+P07437+P68363+Q9BQE3+Q6PEY2+Q13885+Q9BVA1+Q9BUF5); experiment: Inhibition of tubulin polymerization in human SGC-7901 cells assessed as destruction of microtubule network incubated for 48 hrs by immunofluorescence staining based fluorescence microscopic analysis; format: cell-based; conditions: dose 0-30 nmol/L
MGC-803 [13] = experiment: Induction of cell cycle arrest in human MGC-803 cells assessed as accumulation of cells at G2/M phase at 24 nmol/L incubated for 48 hrs (reference value: 33%); format: functional
MGC-803 [14] = experiment: Induction of apoptosis in human MGC-803 cells assessed as downregulation of Mcl-1 protein expression incubated for 48 hrs by Western blot analysis; format: functional, cell-based; conditions: dose 0-24 nmol/L
MGC-803 [15] = experiment: Inhibition of cell migration in human MGC-803 cells assessed as reduction in number of cells crossing membrane at 4 nmol/L measured after 48 hrs by transwell assay; format: functional, cell-based
MGC-803 [16] = experiment: Induction of morphological changes in human MGC-803 cells assessed as appearance of broken nucleus at 24 nM incubated for 48 hrs by DAPI staining based analysis; format: functional, cell-based
GES1 = experiment: Cytotoxicity against human GES1 cells assessed as reduction in cell viability at 0 to 30 nM incubated for 48 hrs by MTT assay; format: toxicity, cell-based; conditions: ges1, 48 h, 0.03 µM, dose 0-30 nM
MGC-803 [17] = experiment: Induction of apoptosis in human MGC-803 cells assessed as increase in cleaved caspase-7 level at 0 to 24 nmol/L incubated for 48 hrs by Western blot analysis; format: functional, cell-based; conditions: dose 0-24 nmol/L
MGC-803 [18] = experiment: Induction of morphological changes in human MGC-803 cells assessed as varied size of nucleus at 0 to 24 nmol/L incubated for 48 hrs by DAPI staining based analysis; format: functional, cell-based; conditions: dose 0-24 nmol/L
SGC-7901 [19] = experiment: Induction of morphological changes in human SGC-7901 cells assessed as varied size of nucleus at 0 to 30 nmol/L incubated for 48 hrs by DAPI staining based analysis; format: functional, cell-based; conditions: dose 0-30 nmol/L
HGC-27 = experiment: Antiproliferative activity against human HGC-27 cells assessed as inhibition of cell growth incubated for 48 hrs by MTT assay; format: functional, cell-based; conditions: HGC-27, 48 h
SGC-7901 [20] = experiment: Antiproliferative activity against human SGC-7901 cells assessed as inhibition of cell growth incubated for 48 hrs by MTT assay; format: functional, cell-based; conditions: SGC-7901, 48 h
MGC-803 [21] = experiment: Induction of apoptosis in human MGC-803 cells assessed as activation of caspase-3 at 0 to 24 nmol/L incubated for 48 hrs by Western blot analysis; format: functional, cell-based; conditions: dose 0-24 nmol/L
SGC-7901 [22] = experiment: Inhibition of cell migration in human SGC-7901 cells assessed as reduction in rate of wound healing at 4 nmol/L measured after 0 to 48 hrs; format: functional, cell-based; conditions: time 0-48 hrs
SGC-7901 [23] = experiment: Induction of cell cycle arrest in human SGC-7901 cells assessed as increase in p-Histone H3 protein expression incubated for 48 hrs by Western blot analysis; format: functional, cell-based; conditions: dose 0-30 nmol/L
MGC-803 [24] = experiment: Induction of cell cycle arrest in human MGC-803 cells assessed as accumulation of cells at G2/M phase incubated for 48 hrs; format: functional, cell-based; conditions: dose 0-24 nmol/L
SGC-7901 [25] = experiment: Induction of cell cycle arrest in human SGC-7901 cells assessed as downregulation of Wee1 protein expression incubated for 48 hrs by Western blot analysis; format: functional, cell-based; conditions: dose 0-30 nmol/L
MGC-803 [26] = experiment: Induction of apoptosis in human MGC-803 cells assessed as downregulation of Bcl-2 protein expression incubated for 48 hrs by Western blot analysis; format: functional, cell-based; conditions: dose 0-24 nmol/L
SGC-7901 [27] = experiment: Induction of apoptosis in human SGC-7901 cells assessed as total apoptotic cells at 30 nmol/L incubated for 48 hrs by Annexin-FITC/PI staining based flow cytometry analysis (reference value: 5.9%); format: functional
MGC-803 [28] = experiment: Induction of cell cycle arrest in human MGC-803 cells assessed as downregulation of Wee1 protein expression incubated for 48 hrs by Western blot analysis; format: functional, cell-based; conditions: dose 0-24 nmol/L
MGC-803 [29] = experiment: Induction of morphological changes in human MGC-803 cells assessed as increase in proportion of dead cells at 0 to 24 nmol/L incubated for 48 hrs by calcein-AM/PI staining based analysis; format: functional, cell-based; conditions: dose 0-24 nmol/L
NCI-H520 = experiment: Antiproliferative activity against human NCI-H520 cells assessed as inhibition of cell growth incubated for 48 hrs by MTT assay; format: functional, cell-based; conditions: NCI-H520, 48 h

COc1ccc(CN(C(=O)CSC(=S)N2CCN(c3ccc(N)cc3)CC2)c2cc(OC)c(OC)c(OC)c2)cc1O
19.5 nM: IC50 (SGC-7901 [20])
44 nM: IC50 (HCT-116)
85.5%: Activity (MGC-803 [9])
60%: Activity (MGC-803 [13])
22.5 nM: IC50 (NCI-H520)
44.6 nM: IC50 (PC-3)
75.4%: Activity (SGC-7901 [27])
24.5 nM: IC50 (HGC-27)
3060 nM: IC50 (Tubulin)
active: Activity (SGC-7901 [1]) | Activity (MGC-803 [2]) Tde | Activity (MGC-803 [3]) | Activity (MGC-803 [4]) | Activity (MGC-803 [5]) | Activity (MGC-803 [6]) Dose-Dependent Effect | inhibition [7] | Activity (SGC-7901 [8]) Dose-Dependent Effect | Activity (SGC-7901 [10]) Dose-Dependent Effect | Activity (SGC-7901 [11]) | inhibition [12] | inhibition (Tubulin (Homo sapiens)) Dose-Dependent Effect | Activity (MGC-803 [14]) Dose-Dependent Effect | inhibition (MGC-803 [15]) | Activity (MGC-803 [16]) | Activity (MGC-803 [17]) | Activity (MGC-803 [18]) | Activity (SGC-7901 [19]) | Activity (MGC-803 [21]) | inhibition (SGC-7901 [22]) | Activity (SGC-7901 [23]) Dose-Dependent Effect | Activity (MGC-803 [24]) Dose-Dependent Effect | Activity (SGC-7901 [25]) Dose-Dependent Effect | Activity (MGC-803 [26]) Dose-Dependent Effect | Activity (MGC-803 [28]) Dose-Dependent Effect | Activity (MGC-803 [29])
Non-Toxic: Activity (GES1)
